From US20230183292A1, “IMMUNOMODULATORS” (priority 2020, published 2023) come the findings set out here.

A word on the IC50: it is the midpoint of a concentration-inhibition curve.

Starred links: 1 amine or outer side, 2 acyl side, 3 side chain; linkers in the order of their positions; H or OH if unused. Positions of bridges follow the written chain, without caps; N, C: chain ends. Non-standard residues stand in square brackets, D forms with d. Residues, ends and D or L forms follow the SMILES beside them. *: point of attachment. X2 = C[C@H](CCC(=O)NCCCN(CCCCNC(=O)CC[C@@H](C)[C@@H]1CC[C@H]2[C@@H]3[C@H](O)C[C@@H]4C[C@H](O)CC[C@]4(C)[C@H]3C[C@H](O)[C@@]21C)*)[C@H]1CC[C@H]2[C@@H]3[C@H](O)C[C@@H]4C[C@H](O)CC[C@]4(C)[C@H]3C[C@H](O)[C@]12C; X15 = C[C@H](CCC(=O)NCCCCNc1c(*)c(=O)c1=O)[C@H]1CC[C@H]2[C@@H]3[C@H](O)C[C@@H]4C[C@H](O)CC[C@]4(C)[C@H]3C[C@H](O)[C@]12C; X5 = CC(C)CCC[C@@H](C)[C@H]1CC[C@H]2[C@@H]3CC[C@H]4C[C@@H](NC[C@H](N[*:1])C(=O)[*:2])CC[C@]4(C)[C@H]3CC[C@]12C; X17 = C[C@H](CCC(=O)O)[C@H]1CC[C@H]2[C@@H]3CC[C@@H]4CC(NC[C@H](N[*:1])C(=O)[*:2])CC[C@]4(C)[C@H]3CC[C@]12C; Cholyl = C[C@H](CCC(=O)*)[C@H]1CC[C@H]2[C@@H]3[C@H](O)C[C@@H]4C[C@H](O)CC[C@]4(C)[C@H]3C[C@H](O)[C@]12C; Trp(1-CH2CO) = O=C([C@H](Cc1cn(CC(=O)[*:3])c2ccccc12)N[*:1])[*:2]; Trp(1-CH2COOH) = N[C@@H](Cc1cn(CC(=O)O)c2ccccc12)C(=O)O; Hyp = O=C(O)[C@@H]1C[C@@H](O)CN1; X12 = O=c1c([*:1])c([*:2])c1=O; NMeNle = CCCC[C@H](NC)C(=O)O; NMeA = CN[C@@H](C)C(=O)O; Dab = NCC[C@H](N)C(=O)O; Dap = NC[C@H](N)C(=O)O

T1 sequence (Q9NZQ7 18-239): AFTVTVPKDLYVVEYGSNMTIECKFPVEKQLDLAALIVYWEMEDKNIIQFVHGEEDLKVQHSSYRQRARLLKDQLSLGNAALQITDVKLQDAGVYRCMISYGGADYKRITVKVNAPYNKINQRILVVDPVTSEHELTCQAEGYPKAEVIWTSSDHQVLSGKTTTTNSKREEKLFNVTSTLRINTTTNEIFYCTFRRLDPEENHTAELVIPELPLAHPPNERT

This assay concerns the target T1, PD-1/PD-L1 (Homo sapiens, UniProt Q9NZQ7).
T1 construct: TVMV protease site (C); made in house; host or cells: HEK293T cells
Nature of the assay: PD-1/PD-L1 Homogenous Time-Resolved Fluorescence (HTRF) binding assay. The settings on record: PD-L1-His 10 nM, PD-1-Ig 20 nM; read-out: HTRF IC50. In short, it runs like this:
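Inhibitors pre-incubated 15 min with PD-L1-His (10 nM final) in dPBS, 0.1% BSA, 0.05% Tween-20, then 15 min with PD-1-Ig (20 nM final). Eu-cryptate anti-Ig (1 nM) and APC anti-His (20 nM) added, 30 min equilibration; HTRF 665/620 nm ratio. Human ECD proteins from HEK293T.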
Regarding `CCCC[C@H]1C(=O)N(C)[C@@H](CCCC)C(=O)N[C@@H](CC(C)C)C(=O)N[C@H](C(=O)NCC(N)=O)CSCC(=O)N[C@@H](Cc2ccc(O)cc2)C(=O)N(C)[C@@H](C)C(=O)N[C@@H](CC(N)=O)C(=O)N2CCC[C@H]2C(=O)N[C@@H](CNC2CC[C@@]3(C)[C@H](CC[C@@H]4[C@@H]3CC[C@]3(C)[C@@H]([C@H](C)CCC(=O)O)CC[C@@H]43)C2)C(=O)N[C@@H](CC(C)C)C(=O)N2C[C@H](O)C[C@H]2C(=O)N[C@@H](Cc2c[nH]c3ccccc23)C(=O)N[C@@H](CCN)C(=O)N[C@@H](Cc2cn(CC(=O)O)c3ccccc23)C(=O)N1C` (some centres unmarked) [Example 3007] ({CH2CO}-Y[NMeA]NP[X17]L[Hyp]W[Dab][Trp(1-CH2COOH)][NMeNle][NMeNle]LCG-NH2; thioether N-14), the IC50 was determined as 0.012 µM.
Then `CCCC[C@H]1C(=O)N(C)[C@@H](CCCC)C(=O)N[C@@H](CC(C)C)C(=O)N[C@H](C(=O)NCC(N)=O)CSCC(=O)N[C@@H](Cc2ccc(O)cc2)C(=O)N(C)[C@@H](C)C(=O)N[C@@H](CC(N)=O)C(=O)N2CCC[C@H]2C(=O)N[C@@H](CN[C@H]2CC[C@@]3(C)[C@@H](CC[C@@H]4[C@@H]3CC[C@]3(C)[C@@H]([C@H](C)CCCC(C)C)CC[C@@H]43)C2)C(=O)N[C@@H](CC(C)C)C(=O)N2C[C@H](O)C[C@H]2C(=O)N[C@@H](Cc2c[nH]c3ccccc23)C(=O)N[C@@H](CCN)C(=O)N[C@@H](Cc2cn(CC(=O)O)c3ccccc23)C(=O)N1C` [Example 3008] ({CH2CO}-Y[NMeA]NP[X5]L[Hyp]W[Dab][Trp(1-CH2COOH)][NMeNle][NMeNle]LCG-NH2; thioether N-14), with 0.091 µM; and `CCCC[C@H]1C(=O)N(C)[C@@H](CCCC)C(=O)N[C@@H](CC(C)C)C(=O)N[C@H](C(=O)NCC(N)=O)CSCC(=O)N[C@@H](Cc2ccc(O)cc2)C(=O)N(C)[C@@H](C)C(=O)N[C@@H](CC(N)=O)C(=O)N2CCC[C@H]2C(=O)N[C@@H](CNc2c(NCCCCNC(=O)CC[C@@H](C)[C@H]3CC[C@H]4[C@@H]5[C@H](O)C[C@@H]6C[C@H](O)CC[C@]6(C)[C@H]5C[C@H](O)[C@]34C)c(=O)c2=O)C(=O)N[C@@H](CC(C)C)C(=O)N2C[C@H](O)C[C@H]2C(=O)N[C@@H](Cc2c[nH]c3ccccc23)C(=O)N[C@@H](CCNc2c(NCCCCNC(=O)CC[C@@H](C)[C@H]3CC[C@H]4[C@@H]5[C@H](O)C[C@@H]6C[C@H](O)CC[C@]6(C)[C@H]5C[C@H](O)[C@]34C)c(=O)c2=O)C(=O)N[C@@H](Cc2cn(CC(=O)O)c3ccccc23)C(=O)N1C` [Example 5001] ({CH2CO}-Y[NMeA]NP[Dap](X15)L[Hyp]W[Dab](X15)[Trp(1-CH2COOH)][NMeNle][NMeNle]LCG-NH2; thioether N-14; N-terminus assumed), with 0.0007 µM.
For `CCCC[C@H]1C(=O)N(C)[C@@H](CCCC)C(=O)N[C@@H](CC(C)C)C(=O)N[C@H](C(=O)NCC(N)=O)CSCC(=O)N[C@@H](Cc2ccc(O)cc2)C(=O)N(C)[C@@H](C)C(=O)N[C@@H](CC(N)=O)C(=O)N2CCC[C@H]2C(=O)N[C@H]2CNc3c(c(=O)c3=O)NCC[C@H](NC(=O)[C@H](Cc3c[nH]c4ccccc34)NC(=O)[C@@H]3C[C@@H](O)CN3C(=O)[C@H](CC(C)C)NC2=O)C(=O)N[C@@H](Cc2cn(CC(=O)N(CCCCNC(=O)CC[C@@H](C)[C@@H]3CC[C@H]4[C@@H]5[C@H](O)C[C@@H]6C[C@H](O)CC[C@]6(C)[C@H]5C[C@H](O)[C@@]43C)CCCNC(=O)CC[C@@H](C)[C@H]3CC[C@H]4[C@@H]5[C@H](O)C[C@@H]6C[C@H](O)CC[C@]6(C)[C@H]5C[C@H](O)[C@]34C)c3ccccc23)C(=O)N1C` [Example 6001] ({CH2CO}-Y[NMeA]NP[Dap]L[Hyp]W[Dab][Trp(1-CH2CO)](X2)[NMeNle][NMeNle]LCG-NH2; linker 5-9 via X12; thioether N-14), the IC50 came to 0.85 µM.
For `CCCC[C@H]1C(=O)N(C)[C@@H](CCCC)C(=O)N[C@@H](CC(C)C)C(=O)N[C@H](C(=O)NCC(N)=O)CSCC(=O)N[C@@H](Cc2ccc(O)cc2)C(=O)N(C)[C@@H](C)C(=O)N[C@@H](CC(N)=O)C(=O)N2CCC[C@H]2C(=O)N[C@@H](CNC(=O)CC[C@@H](C)[C@H]2CC[C@H]3[C@@H]4[C@H](O)C[C@@H]5C[C@H](O)CC[C@]5(C)[C@H]4C[C@H](O)[C@]23C)C(=O)N[C@@H](CC(C)C)C(=O)N2C[C@H](O)C[C@H]2C(=O)N[C@@H](Cc2c[nH]c3ccccc23)C(=O)N[C@@H](CCNC(=O)CC[C@@H](C)[C@H]2CC[C@H]3[C@@H]4[C@H](O)C[C@@H]5C[C@H](O)CC[C@]5(C)[C@H]4C[C@H](O)[C@]23C)C(=O)N[C@@H](Cc2cn(CC(=O)N(CCCCNC(=O)CC[C@@H](C)[C@@H]3CC[C@H]4[C@@H]5[C@H](O)C[C@@H]6C[C@H](O)CC[C@]6(C)[C@H]5C[C@H](O)[C@@]43C)CCCNC(=O)CC[C@@H](C)[C@H]3CC[C@H]4[C@@H]5[C@H](O)C[C@@H]6C[C@H](O)CC[C@]6(C)[C@H]5C[C@H](O)[C@]34C)c3ccccc23)C(=O)N1C` [Example 7001] ({CH2CO}-Y[NMeA]NP[Dap](Cholyl)L[Hyp]W[Dab](Cholyl)[Trp(1-CH2CO)](X2)[NMeNle][NMeNle]LCG-NH2; thioether N-14) the value was 0.002 µM.
